From PMC8910697, “Development of VPC-70619, a Small-Molecule N-Myc Inhibitor as a Potential Therapy for Neuroendocrine Prostate Cancer” (International Journal of Molecular Sciences, 2022)
“Also recorded” adds a separate entry of the source.

How the values were obtained:
[1] = Microsomal stability assay; assay type: in vitro ADME, Mouse; conditions: mouse liver microsomes, 1 µM compound
Description: A microsomal stability assay was performed using the Corning Gentest NADPH Regenerating System (Corning, #451220/41200) (Corning, NY, USA). Mouse liver microsomes (MLM) (Xenotech, M1000) (Kansas City, KS, USA) and compounds were diluted to a final concentration of 0.15 mg/mL and 1 μM respectively. These were prepared into a 500 μL solution with 100 mM potassium phosphate buffer (pH = 7.4). Imipramine was used as a control. NADPH solutions A and B were mixed in a 5:1 ratio, and 24 μL of the NADPH was added to each of the MLM/compound samples at 30 s intervals. At time points 10, 20, and 45 min, 100 μL of reaction was added to the stopping solution. Samples were centrifuged at 18,000× g and incubated at 4 °C for 10 min. Samples were then loaded onto a LC-MS 96-well plate for analysis.

N-Myc-Max heterodimer = biological target: T1, N-Myc-Max heterodimer (Homo sapiens, UniProt P04198+P61244); experiment: Proximity ligation assay (PLA) in LNCaP-NMYC cells; assay type: cell-based; conditions: 10 µM, 72 h
T1 construct: expressed in transfected cells; host or cells: LNCaP-NMYC cells (gift from David Rickman)
Description: (§1) To confirm that 70619 could disrupt the binding of N-Myc-Max DBD to DNA, we performed a bio-layer interferometry (BLI) assay where we immobilized biotinylated E-box sequence on streptavidin sensors, and we evaluated recombinant N-Myc-Max binding to the DNA in the presence of increasing concentrations of VPC-70619. […] We observed a similar number of interactions when comparing the ratio of signal per nuclei in the presence or absence of the compound.
LNCaP-NMYC cells were seeded on coverslips at a density of 10^5 cells per well of a 6-well plate. After incubation for 24 h the cells were treated with 10 μM of either 10074-G5 or 70619 for 72 h. The coverslips were fixed with methanol:acetone (3:1) and incubated with primary antibodies n-Myc Antibody (NMYC-1) (Novus Biologicals NB200-109) (Littleton, CO, USA) and MAX Antibody (C-17) (Santa Cruz sc-197) (Dallas, TX, USA) overnight at 4 °C. PLA was conducted using the Duolink In Situ Detection Reagents Red kit (Sigma DUO92008) according to the manufacturer’s protocol. The coverslips were then mounted on slides with VECTASHIELD mounting media with DAPI, and images were taken on ZEISS 780 confocal microscope at 40× magnification.

[2] = tested on: N-Myc-Max transcription activity (LNCaP-NMYC cells); experiment: Myc transcription assay (Cignal Myc reporter, luciferase) in LNCaP-NMYC cells; assay type: cell-based
[3] = tested on: N-Myc-Max binding to DNA E-box; experiment: Biolayer interferometry (BLI), N-Myc-Max binding to biotinylated E-box DNA; assay type: biochemical; conditions: BLI, 0, 50, 100, 200 µM
Text: as §1
The bHLHLZ domain of N-Myc (amino acids 309–394) and Max (amino acids 12–93) protein sequences were cloned into pETDuet with an N-terminal 6×His. pETDuet-His-NMyc-Max was transformed and expressed in E. coli BL21 and induced with 0.5 mM isopropyl-β-D-thiogalactopyranoside (IPTG) at 16 °C overnight. The cultures were lysed by sonication and combined for purification by immobilized metal ion chromatography (IMAC) with nickel-nitrilotriacetic acid (Ni-NTA) resin. The bound proteins were eluted from the column with 20 mM Tris, pH = 8, 500 mM NaCl, 5% glycerol, 300 mM imidazole, 5 mM βMe, and 0.1 mM PMSF. Size exclusion chromatography with Superdex 75 was used to increase the purity of the N-Myc-Max protein sample. The purified protein complex was used in subsequent BLI and MST experiments.
Biotinylated-duplex DNA (Forward: 5′ Biotin-[…], Reverse: […]) was bound to the super-streptavidin (SSA) ForteBio Sensor in the assay buffer [20 mM Tris pH = 8, 150 mM NaCl, 5% glycerol, and 0.2 mM TCEP]. The protein solution was mixed with the serially diluted compound (70619) to a final concentration of 0.1 mg/mL of protein and 200 μM, 100 μM, and 50 μM for the compound. Sample containing N-Myc-Max protein alone was used as a control.

[4] = tested on: N-Myc-Max transcription activity (LNCaP-NMYC cells); experiment: Myc transcription assay (Cignal Myc reporter, luciferase) in LNCaP-NMYC cells; assay type: cell-based
Method in brief: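 LNCaP-NMYC cells transfected with Cignal Myc luciferase reporter were treated 24 h with compounds at 5 µM or 10 µM. Read-out: inhibition of N-Myc-Max-driven reporter luminescence.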

T1 sequence (P04198 whole entry): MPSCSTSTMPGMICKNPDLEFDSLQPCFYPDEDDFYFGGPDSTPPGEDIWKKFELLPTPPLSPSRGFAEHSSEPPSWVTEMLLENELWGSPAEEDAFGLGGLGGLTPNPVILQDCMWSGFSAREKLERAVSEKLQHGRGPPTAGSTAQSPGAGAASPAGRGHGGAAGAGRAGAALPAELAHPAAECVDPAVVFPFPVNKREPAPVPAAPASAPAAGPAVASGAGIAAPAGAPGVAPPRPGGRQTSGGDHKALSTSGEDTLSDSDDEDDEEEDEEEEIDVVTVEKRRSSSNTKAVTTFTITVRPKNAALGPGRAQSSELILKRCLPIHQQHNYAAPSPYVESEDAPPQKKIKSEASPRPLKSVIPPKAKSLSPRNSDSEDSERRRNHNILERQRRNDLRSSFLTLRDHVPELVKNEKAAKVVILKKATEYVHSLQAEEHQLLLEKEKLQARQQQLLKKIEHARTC
T1 sequence (P61244 whole entry): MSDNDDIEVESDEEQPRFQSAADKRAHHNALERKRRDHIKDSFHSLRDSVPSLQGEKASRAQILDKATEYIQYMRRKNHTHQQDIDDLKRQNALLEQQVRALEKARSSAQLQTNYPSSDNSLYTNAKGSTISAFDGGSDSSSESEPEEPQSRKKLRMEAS

Row | microsomal half-life (T1/2) [1] | disruption of DNA binding to (N-)Myc-Max (in words) [3] | IC50 ([4]; Homo sapiens, LNCaP, Table 1, transcriptional assay in LNCaP cells overexpressing N-Myc, read-out: IC50) | SMILES | effect on N-Myc-Max heterodimer interactions (in words) (N-Myc-Max heterodimer) | inhibition at 25 µM [2] | transcription inhibition activity (in words) ([4]; LNCaP-NMYC, screened at 10 µM and 5 µM)
1 | 3 min | – | – | O=[N+]([O-])c1ccc(Nc2ccccc2-c2ccccc2)c2nonc12 [10074-G5, reference compound] | significant decrease in the number of interactions; also recorded: the number of interactions is reduced | – | –
2 | – | weakly disrupts DNA binding | 1000 nM | O=C(NNc1ccc(C(F)(F)F)cc1[N+](=O)[O-])c1cnccn1 [compound 70127] | – | 106% | strong Myc inhibitory activity
